Reference: ChEMBL document CHEMBL1201862, “PubChem BioAssay data set” (2004)
The source made the active and inactive calls.

What was measured:
[1] = NIH-3T3 fibroblast cytotoxicity, dose response, cytotoxicity control, cell-based, fluorescence, Alamar Blue, secondary assay (AID 2327); assay type: functional;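 further: NIH-3T3 mouse fibroblasts cultured with fluconazole at 8 µg/mL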
[2] = C. albicans growth with fluconazole, confirmation, fluorescence, retest (AID 2467); assay type: functional, cell-based
[3] = test system: HEK293; assay: inhibitors of LMP1-driven NF-kB reporter, dose response, cell-based, HEK293, luciferase, cherry-pick (AID 588343); assay type: functional; conditions: Homo sapiens
[4] = molecular target: T1, Latent membrane protein 1 (Human herpesvirus 4 (strain B95-8), UniProt P03230); assay: TES1-eGFP NF-kB reporter inhibition versus Tet-On dsRED, dose response, selectivity assay for LMP1 NF-kB inhibitor project, imaging, HEK293T, dual-color eGFP/dsRED, cherry-picks (AID 588398); assay type: functional, cell-based
T1 sequence (P03230 whole entry): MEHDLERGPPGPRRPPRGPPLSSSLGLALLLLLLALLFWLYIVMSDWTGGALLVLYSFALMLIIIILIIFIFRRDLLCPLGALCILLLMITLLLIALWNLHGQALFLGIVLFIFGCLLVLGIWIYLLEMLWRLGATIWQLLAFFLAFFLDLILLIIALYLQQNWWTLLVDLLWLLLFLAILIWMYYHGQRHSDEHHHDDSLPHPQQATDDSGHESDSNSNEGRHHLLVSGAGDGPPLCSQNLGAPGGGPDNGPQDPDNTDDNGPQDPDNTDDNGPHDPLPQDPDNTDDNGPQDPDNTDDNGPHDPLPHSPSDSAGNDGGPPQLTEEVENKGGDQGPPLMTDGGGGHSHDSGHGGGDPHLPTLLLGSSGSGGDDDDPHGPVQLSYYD

[5] = test system: Vero; assay: cells; assay type: functional; conditions: Chlorocebus sabaeus
[6] = Shn3 3'UTR reporter inhibitors, dose response, cell-based, Clone20 osteoblasts, firefly luciferase, cherry-picked (AID 624132); assay type: functional;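 further: firefly luciferase luminescence from reporter carrying the Shn3 3'UTR in osteoblasts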
[7] = HepG2 cell cytotoxicity, dose response, cytotoxicity control for Shn3 inhibitor project, CellTiter-Glo, cherry-picked (AID 624134); assay type: functional, cell-based
[8] = control 3'UTR Renilla luciferase suppression, dose response, counter-screen for Shn3 inhibitor project, cell-based, Clone20-Shn3RL, cherry-picked (AID 624133); assay type: functional
[9] = molecular target: 26S proteasome non-ATPase regulatory subunit 14 (Homo sapiens, UniProt O00487); assay: inhibition of proteasome subunit RPN11 – biochemical, fluorescence polarization, uHTS hits, confirmation (AID 602368); assay type: functional
[10] = molecular target: 72 kDa type IV collagenase (Homo sapiens, UniProt P08253); assay: Dose Response validation of uHTS RPN11 inhibitor hits using a MMP-2 Fluorescence assay.; assay type: functional
[11] = molecular target: Prothrombin (Bos taurus, UniProt P00735); assay: thrombin inhibition, dose response, biochemical, fluorescence polarization, uHTS hits (AID 602369); assay type: functional
[12] = molecular target: T2, Sentrin-specific protease 1 (Homo sapiens, UniProt Q9P0U3); assay: potency of human SENP1 inhibitors, dose response, biochemical, kinetic FRET (AID 651697); assay type: functional; conditions: read-out: IC50_Mean
T2 sequence (Q9P0U3 whole entry): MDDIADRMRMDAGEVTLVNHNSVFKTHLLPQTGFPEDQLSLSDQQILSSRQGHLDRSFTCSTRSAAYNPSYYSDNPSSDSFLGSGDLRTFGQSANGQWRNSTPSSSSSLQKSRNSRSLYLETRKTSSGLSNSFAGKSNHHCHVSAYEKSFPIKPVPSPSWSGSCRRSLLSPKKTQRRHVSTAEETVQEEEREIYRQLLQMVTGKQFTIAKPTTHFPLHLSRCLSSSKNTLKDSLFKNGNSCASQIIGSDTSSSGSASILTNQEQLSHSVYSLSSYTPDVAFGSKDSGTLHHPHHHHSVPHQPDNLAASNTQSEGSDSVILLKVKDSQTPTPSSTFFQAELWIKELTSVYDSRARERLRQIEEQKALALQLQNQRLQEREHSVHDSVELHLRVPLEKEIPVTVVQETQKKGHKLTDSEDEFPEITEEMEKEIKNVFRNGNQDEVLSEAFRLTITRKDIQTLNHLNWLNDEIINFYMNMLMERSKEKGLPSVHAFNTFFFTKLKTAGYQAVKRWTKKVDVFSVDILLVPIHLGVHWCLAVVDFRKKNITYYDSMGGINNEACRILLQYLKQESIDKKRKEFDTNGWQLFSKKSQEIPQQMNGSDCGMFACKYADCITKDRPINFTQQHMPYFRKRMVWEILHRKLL

[13] = molecular target: T2, Sentrin-specific protease 1; assay: Dose response confirmation of small molecule inhibitors of the catalytic domain of the SUMO protease, SENP1 in a FRET assay.; assay type: functional; conditions: read-out: IC50_Mean
[14] = molecular target: T3, Rac GTPase-activating protein 1 (Homo sapiens, UniProt Q9H0H5); assay: MgcRacGAP GTPase-activating activity inhibitors, confirmation, biochemical, ADP Hunter fluorescence, primary and confirmatory (AID 624330); assay type: functional
T3 sequence (Q9H0H5 whole entry): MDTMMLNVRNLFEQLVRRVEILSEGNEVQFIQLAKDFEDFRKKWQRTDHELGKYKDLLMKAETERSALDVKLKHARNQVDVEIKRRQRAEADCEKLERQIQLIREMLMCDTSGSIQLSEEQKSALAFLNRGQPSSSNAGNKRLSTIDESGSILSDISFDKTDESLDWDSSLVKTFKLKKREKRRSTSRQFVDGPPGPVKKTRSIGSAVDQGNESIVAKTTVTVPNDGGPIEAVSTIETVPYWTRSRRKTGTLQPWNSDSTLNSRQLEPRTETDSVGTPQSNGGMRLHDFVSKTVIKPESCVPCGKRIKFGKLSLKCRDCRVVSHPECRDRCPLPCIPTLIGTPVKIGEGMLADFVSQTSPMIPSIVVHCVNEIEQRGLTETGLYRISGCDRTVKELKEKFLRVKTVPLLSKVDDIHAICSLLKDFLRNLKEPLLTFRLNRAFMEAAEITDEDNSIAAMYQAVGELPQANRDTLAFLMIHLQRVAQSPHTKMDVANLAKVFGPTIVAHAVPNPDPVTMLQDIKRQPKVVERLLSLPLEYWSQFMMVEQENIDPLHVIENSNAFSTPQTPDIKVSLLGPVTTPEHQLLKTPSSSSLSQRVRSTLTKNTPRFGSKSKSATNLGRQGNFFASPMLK

[15] = Luminescence Cell-Based Dose Confirmation HTS to Identify Activators of 5'UTR Stem-Loop Driven Alpha-Synuclein mRNA Translation in H4 Neuroglioblastoma Cells. [Related pubchem assays: 1829 (Project Summary), 1814 (Primary HTS)]; assay type: functional
[16] = Luminescence Cell-Based Dose Response HTS to Identify Activators of Luciferase Translation or Activity in H4 […] Cells. [Related pubchem assays: 1829 (Project Summary), 1814 (Primary HTS)]; assay type: functional
[17] = test system: H4; assay: Luminescence Cell-Based Dose Response HTS to Identify Activators of 5'UTR Stem-Loop Driven Prion Protein mRNA Translation in H4 Neuroglioblastoma Cells. [Related pubchem assays: 1829 (Project Summary), 1814 (Primary HTS)]; assay type: functional; conditions: Homo sapiens
[18] = molecular target: T4, Endoribonuclease toxin MazF (Escherichia coli K-12, UniProt P0AE70); assay: MazF toxin RNase activators, dose response, biochemical, fluorescence, single-stranded RNA substrate, uHTS hits (AID 588481); assay type: functional
T4 sequence (P0AE70 whole entry): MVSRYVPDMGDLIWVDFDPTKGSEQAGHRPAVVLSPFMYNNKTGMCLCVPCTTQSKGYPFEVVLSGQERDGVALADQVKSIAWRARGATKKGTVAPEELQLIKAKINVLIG

[19] = molecular target: T4, Endoribonuclease toxin MazF; assay: fluorescent RNA oligo signal without MazF, dose response, counter-screen for MazEF activator project, biochemical, fluorescence, single-stranded RNase substrate (AID 588502); assay type: functional
[20] = molecular target: Ras and Rab interactor 1/Tyrosine-protein kinase ABL1 (Homo sapiens, UniProt P00519+Q13671); assay type: functional;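 further: biochemical TR-FRET dose-response test measuring inhibition of binding between Rin1 and Abl proteins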
Sequence of Ras and Rab interactor 1/Tyrosine-protein kinase ABL1 (P00519 whole entry): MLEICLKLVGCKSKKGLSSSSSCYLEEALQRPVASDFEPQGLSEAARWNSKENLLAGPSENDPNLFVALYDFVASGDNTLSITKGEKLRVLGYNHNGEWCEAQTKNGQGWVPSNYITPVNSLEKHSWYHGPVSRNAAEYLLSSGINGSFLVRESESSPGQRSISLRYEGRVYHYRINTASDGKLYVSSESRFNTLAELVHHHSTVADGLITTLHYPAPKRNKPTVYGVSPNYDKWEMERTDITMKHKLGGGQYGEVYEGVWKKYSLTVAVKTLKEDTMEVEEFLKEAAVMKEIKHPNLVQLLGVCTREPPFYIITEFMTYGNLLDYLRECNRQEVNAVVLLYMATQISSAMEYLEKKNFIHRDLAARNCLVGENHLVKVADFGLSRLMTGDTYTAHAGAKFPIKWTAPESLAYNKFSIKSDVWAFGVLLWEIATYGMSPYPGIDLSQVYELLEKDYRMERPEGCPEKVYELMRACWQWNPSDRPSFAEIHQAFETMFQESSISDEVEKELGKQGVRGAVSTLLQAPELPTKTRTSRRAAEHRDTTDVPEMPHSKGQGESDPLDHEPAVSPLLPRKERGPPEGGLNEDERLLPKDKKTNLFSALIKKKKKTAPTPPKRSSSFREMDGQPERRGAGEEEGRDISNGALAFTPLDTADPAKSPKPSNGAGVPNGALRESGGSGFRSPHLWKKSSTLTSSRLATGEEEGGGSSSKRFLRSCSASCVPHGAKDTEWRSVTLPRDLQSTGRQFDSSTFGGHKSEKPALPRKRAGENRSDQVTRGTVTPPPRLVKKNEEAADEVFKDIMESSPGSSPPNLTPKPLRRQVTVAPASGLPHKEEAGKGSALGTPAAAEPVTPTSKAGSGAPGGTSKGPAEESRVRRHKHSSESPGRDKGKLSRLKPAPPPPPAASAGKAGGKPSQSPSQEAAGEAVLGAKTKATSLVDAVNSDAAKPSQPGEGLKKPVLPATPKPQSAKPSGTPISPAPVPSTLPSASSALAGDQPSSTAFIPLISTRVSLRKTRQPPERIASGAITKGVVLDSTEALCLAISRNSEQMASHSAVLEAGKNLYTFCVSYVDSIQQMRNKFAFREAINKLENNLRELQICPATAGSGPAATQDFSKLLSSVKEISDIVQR
Sequence of Ras and Rab interactor 1/Tyrosine-protein kinase ABL1 (Q13671 whole entry): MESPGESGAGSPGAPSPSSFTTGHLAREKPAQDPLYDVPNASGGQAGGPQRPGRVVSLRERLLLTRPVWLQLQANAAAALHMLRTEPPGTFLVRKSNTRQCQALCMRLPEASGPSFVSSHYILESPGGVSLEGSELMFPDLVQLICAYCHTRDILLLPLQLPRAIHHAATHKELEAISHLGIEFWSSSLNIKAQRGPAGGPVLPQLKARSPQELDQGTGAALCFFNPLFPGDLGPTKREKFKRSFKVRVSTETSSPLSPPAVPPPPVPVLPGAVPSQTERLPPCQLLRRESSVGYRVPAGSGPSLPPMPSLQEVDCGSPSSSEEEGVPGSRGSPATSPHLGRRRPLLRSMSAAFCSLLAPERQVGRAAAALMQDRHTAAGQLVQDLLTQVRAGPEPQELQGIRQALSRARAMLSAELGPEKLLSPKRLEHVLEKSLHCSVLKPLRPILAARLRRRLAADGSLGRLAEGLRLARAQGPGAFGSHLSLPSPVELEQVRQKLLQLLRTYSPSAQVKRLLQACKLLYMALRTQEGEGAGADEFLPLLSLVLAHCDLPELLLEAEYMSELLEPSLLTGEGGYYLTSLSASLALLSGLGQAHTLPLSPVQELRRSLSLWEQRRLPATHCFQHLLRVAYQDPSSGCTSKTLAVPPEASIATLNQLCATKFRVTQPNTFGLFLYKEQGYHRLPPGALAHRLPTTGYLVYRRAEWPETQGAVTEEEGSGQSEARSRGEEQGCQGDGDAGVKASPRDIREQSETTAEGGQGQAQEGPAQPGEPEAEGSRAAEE

Sequence of 26S proteasome non-ATPase regulatory subunit 14 (O00487 whole entry): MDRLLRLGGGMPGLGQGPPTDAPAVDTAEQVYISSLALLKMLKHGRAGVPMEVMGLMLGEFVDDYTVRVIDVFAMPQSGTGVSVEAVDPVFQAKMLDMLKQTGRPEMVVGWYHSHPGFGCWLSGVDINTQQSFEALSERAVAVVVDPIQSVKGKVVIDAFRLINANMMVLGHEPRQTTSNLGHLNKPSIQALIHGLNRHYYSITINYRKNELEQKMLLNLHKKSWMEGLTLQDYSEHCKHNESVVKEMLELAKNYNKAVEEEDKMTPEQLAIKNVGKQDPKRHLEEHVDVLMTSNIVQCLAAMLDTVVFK
Sequence of 72 kDa type IV collagenase (P08253 whole entry): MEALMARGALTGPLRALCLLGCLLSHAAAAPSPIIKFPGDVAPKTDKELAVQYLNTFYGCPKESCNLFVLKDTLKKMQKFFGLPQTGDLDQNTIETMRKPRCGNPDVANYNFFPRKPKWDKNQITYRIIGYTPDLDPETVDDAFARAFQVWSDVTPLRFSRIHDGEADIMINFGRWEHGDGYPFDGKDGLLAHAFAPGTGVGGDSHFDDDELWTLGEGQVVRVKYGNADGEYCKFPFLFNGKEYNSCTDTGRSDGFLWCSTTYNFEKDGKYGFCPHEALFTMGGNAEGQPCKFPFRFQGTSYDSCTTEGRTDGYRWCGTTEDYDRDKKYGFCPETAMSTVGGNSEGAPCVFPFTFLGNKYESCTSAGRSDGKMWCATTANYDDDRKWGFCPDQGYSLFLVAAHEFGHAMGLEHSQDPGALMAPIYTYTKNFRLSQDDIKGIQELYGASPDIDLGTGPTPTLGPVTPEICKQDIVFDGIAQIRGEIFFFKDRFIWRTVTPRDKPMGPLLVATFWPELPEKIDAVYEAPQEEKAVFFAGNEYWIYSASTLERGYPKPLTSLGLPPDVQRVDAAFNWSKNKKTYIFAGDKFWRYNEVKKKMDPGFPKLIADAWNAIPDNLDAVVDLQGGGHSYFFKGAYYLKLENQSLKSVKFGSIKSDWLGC

COc1ccc(C(=O)NC(=S)NNC(=O)c2ccc3ccccc3n2)cc1
EC50 [1]: 28.4 µM (active) | EC50 [2]: 3.06 µM (active) | AC50 [3]: 13.6 µM (active) | AC50 [4]: 26.8 µM (active) | CC50 [5]: 10.1 µM (active) | AC50 [6]: 4.32 µM (active) | AC50 [7]: 41.5 µM (active) | AC50 [8]: 1.37 µM (active)

CCOC(=O)C1CCCN(C2=NC(=O)/C(=C/c3ccc(O)c(OC)c3)S2)C1 (stereo not given)
IC50 [9]: 26.3 µM (active) | IC50 [10]: > 100 µM (inactive) | IC50 [11]: 40.6 µM (active) | IC50 [12]: 2.97 µM (active) | IC50 [13]: 2.49 µM (active) | IC50 [14]: 19.6 µM (active)

COc1cc(/C=C2/C(=O)N(C)C(=S)N2C)ccc1OCc1cccc(F)c1
EC50 [15]: > 120 µM (not active) | EC50 [16]: > 120 µM (not active) | EC50 [17]: 4.24 µM (active) | EC50 [18]: > 99 µM (inactive) | EC50 [19]: > 99 µM (inactive)

CCOC(=O)CCCCC(=O)c1[nH]c(O)nc1C[n+]1ccc(C)cc1
IC50 [20]: 5.77 µM (active)
